In patent US20240174670A1, “4-AMINO-6-OXO-PYRIDAZINE DERIVATIVES MODULATING NLRP3” (JANSSEN PHARMACEUTICA NV, priority 2021, published 2024):

Experiments:
[1] = system: TNF; assay: PBMC assay, TNF release after LPS stimulation; assay type: cell-based; conditions: human PBMCs, 30 min preincubation, 100 ng/ml LPS for 6 hrs, supernatant, MSD technology
Procedure: (§1) Peripheral venous blood was collected from healthy individuals and human peripheral blood mononuclear cells (PBMCs) were isolated from blood by Ficoll-Histopaque (Sigma-Aldrich, A0561) density gradient centrifugation. After isolation, PBMCs were stored in liquid nitrogen for later use. Upon thawing, PBMC cell viability was determined in growth medium (RPMI media supplemented with 10% fetal bovine serum, 1% Pen-Strep and 1% L-glutamine). Compounds were spotted in a 1:3 serial dilution in DMSO and diluted to the final concentration in 30 μl medium in 96 well plates (Falcon, 353072). PBMCs were added at a density of 7.5×10^4 cells per well and incubated for 30 min in a 5% CO2 incubator at 37 ° C. LPS stimulation was performed by addition of 100 ng/ml LPS (final concentration, Invivogen, tlrl-smlps) for 6 hrs followed by collection of cellular supernatant and the analysis of IL-1β[…] and TNF cytokines levels (uμ) via MSD technology according to manufacturers' guidelines (MSD, K151A0H).
(§2) IC50 and AC50 values (for IL-1β) and EC50 and AC50 values (TNF) were obtained on compounds of the invention/examples, and the AC50 values are depicted in the following table: […]

[2] = system: IL-1β; assay: PBMC assay, IL-1β release after LPS stimulation; assay type: cell-based; conditions: human PBMCs, 30 min preincubation, 100 ng/ml LPS for 6 hrs, supernatant, MSD technology, read-out: IL1β AC50
Procedure: The activity of a compound according to the present invention can be assessed by in vitro methods.
as §1, §2

Q: `CC(C)c1nn(CC(=O)Nc2ccc3nncn3c2)c(=O)cc1N1CCCC1C(C)C` (stereo not shown) [Compound 20] was tested. Which AC50 [1] did it give?
A: > 10 µM

Q: What about the AC50 [2] of the same compound?
A: 10.8 µM

Q: What does the source list for `CO[C@H]1CCN(c2cc(=O)n(CC(=O)Nc3ccc4nncn4c3)nc2C(C)C)C1` [Compound 16]?
A: AC50 [1]: > 10 µM; AC50 [2]: 11.4 µM

Q: `CO[C@@H]1CCN(c2cc(=O)n(CC(=O)Nc3ccc4nncn4c3)nc2C(C)C)C1` [Compound 17] was tested. Which AC50 [1] did it give?
A: > 10 µM

Q: And the AC50 [2]?
A: 2.9 µM

Q: For `CC(C)c1nn(CC(=O)Nc2ccc3nncn3c2)c(=O)cc1N1CCC(c2ccncc2)C1` (stereo not shown) [Compound 65], which AC50 [1] is on record?
A: > 20 µM

Q: What about the AC50 [2] of the same compound?
A: > 20 µM

Q: How did the AC50 [1] turn out when `CC(C)c1nn(CC(=O)Nc2ccc3nncn3c2)c(=O)cc1N1C2CCC1CC2` [Compound 21] was run?
A: > 10 µM

Q: What about the AC50 [2] of the same compound?
A: 1.02 µM

Q: How did the AC50 [1] turn out when `CC(C)c1nn(CC(=O)Nc2ccc3nncn3c2)c(=O)cc1N1CC[C@@H](N(C)C)C1` [Compound 27] was run?
A: > 10 µM

Q: What about the AC50 [2] of the same compound?
A: > 15 µM

Q: `CC(C)c1nn(CC(=O)Nc2ccc3nncn3c2)c(=O)cc1N1CC(C)(O)C1` [Compound 26] was tested. Which AC50 [1] did it give?
A: > 10 µM

Q: And the AC50 [2]?
A: > 15 µM

Q: For `CC(C)c1nn(CC(=O)Nc2ccc3nncn3c2)c(=O)cc1N1CCC(c2nccs2)C1` (stereo not shown) [Compound 64], which AC50 [1] is on record?
A: > 20 µM

Q: What about the AC50 [2] of the same compound?
A: 15.1 µM

Q: What does the source list for `CC(C)c1nn(CC(=O)Nc2ccc3nncn3c2)c(=O)cc1NCC(F)c1ccccc1` (stereo not shown) [Compound 37]?
A: AC50 [1]: > 20 µM; AC50 [2]: > 20 µM

Q: `CC(C)c1nn(CC(=O)Nc2ccc3nncn3c2)c(=O)cc1NC(C)C1CC1(F)F` (stereo not shown) [Compound 40, N-([1,2,4]triazolo[4,3-a]pyridin-6-yl)-2-(4-((1-(2,2-difluorocyclopropyl)ethyl)amino)-3-isopropyl-6-oxopyridazin-1(6H)-yl)acetamide] was tested. Which AC50 [1] did it give?
A: > 20 µM

Q: And the AC50 [2]?
A: > 20 µM

Q: `CCC1CCCN1c1cc(=O)n(CC(=O)Nc2ccc3nncn3c2)nc1C(C)C` (stereo not shown) [Compound 19] was tested. Which AC50 [1] did it give?
A: > 10 µM

Q: What about the AC50 [2] of the same compound?
A: 2.61 µM

Q: What does the source list for `CC(C)c1nn(CC(=O)Nc2ccc3nncn3c2)c(=O)cc1Nc1cnc(C2CC2)nc1` [Compound 39]?
A: AC50 [1]: > 6.67 µM; AC50 [2]: > 6.67 µM

Q: How did the AC50 [1] turn out when `COC1CN(c2cc(=O)n(CC(=O)Nc3ccc4nncn4c3)nc2C(C)C)C1` [Compound 24] was run?
A: > 10 µM

Q: And the AC50 [2]?
A: 9.87 µM

Q: How did the AC50 [1] turn out when `COC[C@@H]1CCCN1c1cc(=O)n(CC(=O)Nc2ccc3nncn3c2)nc1C(C)C` [Compound 8] was run?
A: > 10 µM

Q: What about the AC50 [2] of the same compound?
A: 5.81 µM

Q: With `CC(C)c1nn(CC(=O)Nc2ccc3nncn3c2)c(=O)cc1NC1CC(C)(C)C1` [Compound 31, N-([1,2,4]triazolo[4,3-a]pyridin-6-yl)-2-(4-((3,3-dimethylcyclobutyl)amino)-3-isopropyl-6-oxopyridazin-1(6H)-yl)acetamide] as the compound, how does the AC50 [1] read?
A: > 20 µM

Q: What about the AC50 [2] of the same compound?
A: > 20 µM

Q: For `CC(C)c1nn(CC(=O)Nc2ccc3nncn3c2)c(=O)cc1N1CC[C@@H]2C[C@@H]2C1` [Compound 33], which AC50 [1] is on record?
A: > 20 µM

Q: And the AC50 [2]?
A: 0.5 µM

Q: For `CC(C)c1nn(CC(=O)Nc2ccc3nncn3c2)c(=O)cc1N1CCCC(F)C1` (stereo not shown) [Compound 60], which AC50 [1] is on record?
A: 19.1 µM

Q: And the AC50 [2]?
A: 1.59 µM

Q: What does the source list for `CC(C)c1nn(CC(=O)Nc2ccc3nncn3c2)c(=O)cc1N(C)C` [Compound 30, 2-[4-(dimethylamino)-3-isopropyl-6-oxo-pyridazin-1-yl]-N-([1,2,4]triazolo[4,3-a]pyridin-6-yl)acetamide]?
A: AC50 [1]: > 10 µM; AC50 [2]: > 15 µM

Q: Which AC50 [1] does the source give for `CC1CN(c2cc(=O)n(CC(=O)Nc3ccc4nncn4c3)nc2C(C)C)C1` [Compound 23] here?
A: > 10 µM

Q: And the AC50 [2]?
A: 0.71 µM

Q: For `CC(C)c1nn(CC(=O)Nc2ccc3nncn3c2)c(=O)cc1N1CCC2(CC1)CC2(F)F` [Compound 61], which AC50 [1] is on record?
A: > 20 µM

Q: And the AC50 [2]?
A: 19.5 µM

Q: `CC(C)c1nn(CC(=O)Nc2ccc3nncn3c2)c(=O)cc1N1CCC12CCOCC2` [Compound 25] was tested. Which AC50 [1] did it give?
A: > 10 µM

Q: What about the AC50 [2] of the same compound?
A: > 15 µM

Q: `CC(C)c1nn(CC(=O)Nc2ccc3nncn3c2)c(=O)cc1Nc1ccccc1` [Compound 1, 2-(4-anilino-3-isopropyl-6-oxo-pyridazin-1-yl)-N-([1,2,4]triazolo[4,3-a]pyridin-6-yl)acetamide] was tested. Which AC50 [1] did it give?
A: > 10 µM

Q: And the AC50 [2]?
A: > 15 µM

Q: How did the AC50 [1] turn out when `CC(C)c1nn(CC(=O)Nc2ccc3nncn3c2)c(=O)cc1N1CCCC1` [Compound 5, 2-(3-isopropyl-6-oxo-4-pyrrolidin-1-yl-pyridazin-1-yl)-N-([1,2,4]triazolo[4,3-a]pyridin-6-yl)acetamide] was run?
A: > 10 µM

Q: And the AC50 [2]?
A: 0.33 µM

Q: Which results are given for `CC(C)c1nn(CC(=O)Nc2ccc3nncn3c2)c(=O)cc1Nc1cnn(CC23CC(CO2)C3)c1` [Compound 2]?
A: AC50 [1]: > 10 µM; AC50 [2]: > 15 µM

Q: For `CC(C)CNc1cc(=O)n(CC(=O)Nc2ccc3nncn3c2)nc1C(C)C` [Compound 46], which AC50 [1] is on record?
A: > 20 µM

Q: What about the AC50 [2] of the same compound?
A: 1.36 µM

Q: For `CC(C)c1nn(CC(=O)Nc2ccc3nncn3c2)c(=O)cc1N1CC(C)(F)C1` [Compound 32], which AC50 [1] is on record?
A: > 20 µM

Q: And the AC50 [2]?
A: 1.37 µM

Q: For `CC(C)c1nn(CC(=O)Nc2ccc3nncn3c2)c(=O)cc1N1CCCCC1C` (stereo not shown) [Compound 54], which AC50 [1] is on record?
A: > 20 µM

Q: What about the AC50 [2] of the same compound?
A: 3.62 µM

Q: With `CC(C)c1nn(CC(=O)Nc2ccc3nncn3c2)c(=O)cc1Nc1cccc2ocnc12` [Compound 42] as the compound, how does the AC50 [1] read?
A: > 20 µM

Q: What about the AC50 [2] of the same compound?
A: > 20 µM

Q: Which AC50 [1] does the source give for `CC(C)c1nn(CC(=O)Nc2ccc3nncn3c2)c(=O)cc1N1CC[C@H](F)C1` [Compound 9] here?
A: > 10 µM

Q: What about the AC50 [2] of the same compound?
A: 2.49 µM

Q: `CC(C)c1nn(CC(=O)Nc2ccc3nncn3c2)c(=O)cc1N1CCCCC1` [Compound 45, N-([1,2,4]triazolo[4,3-a]pyridin-6-yl)-2-(3-isopropyl-6-oxo-4-(piperidin-1-yl)pyridazin-1(6H)-yl)acetamide] was tested. Which AC50 [1] did it give?
A: > 20 µM

Q: What about the AC50 [2] of the same compound?
A: 1.23 µM

Q: With `CC(C)c1nn(CC(=O)Nc2ccc3nncn3c2)c(=O)cc1N1CC2CC2C1` (stereo not shown) [Compound 14] as the compound, how does the AC50 [1] read?
A: > 10 µM

Q: What about the AC50 [2] of the same compound?
A: 0.09 µM

Q: Which results are given for `CC(C)c1nn(CC(=O)Nc2ccc3nncn3c2)c(=O)cc1N1CCC[C@H](C)C1` [Compound 55]?
A: AC50 [1]: > 20 µM; AC50 [2]: 0.51 µM

Q: What does the source list for `CC(C)c1nn(CC(=O)Nc2ccc3nncn3c2)c(=O)cc1N1CC2(CCC2)C1` [Compound 49]?
A: AC50 [1]: 8.29 µM; AC50 [2]: 0.76 µM

Q: Which AC50 [1] does the source give for `CC(C)c1nn(CC(=O)Nc2ccc3nncn3c2)c(=O)cc1N1CCC2(CCCO2)C1` (stereo not shown) [Compound 52] here?
A: > 20 µM

Q: And the AC50 [2]?
A: > 20 µM

Q: For `CC(C)c1nn(CC(=O)Nc2ccc3nncn3c2)c(=O)cc1N1CC2(COC2)C1` [Compound 50], which AC50 [1] is on record?
A: > 20 µM

Q: What about the AC50 [2] of the same compound?
A: > 20 µM

Q: What does the source list for `CC(C)c1nn(CC(=O)Nc2ccc3nncn3c2)c(=O)cc1NC1CCCC1` [Compound 7]?
A: AC50 [1]: > 10 µM; AC50 [2]: 4.36 µM

Q: `CC(C)c1nn(CC(=O)Nc2ccc3nncn3c2)c(=O)cc1Nc1cnn(CC23CC(CO2)C3)c1C(F)(F)F` [Compound 3] was tested. Which AC50 [1] did it give?
A: > 10 µM

Q: What about the AC50 [2] of the same compound?
A: > 15 µM

Q: `CC(C)c1nn(CC(=O)Nc2ccc3nncn3c2)c(=O)cc1N1CCC[C@@H]1Cn1ccnc1` [Compound 62] was tested. Which AC50 [1] did it give?
A: > 20 µM

Q: What about the AC50 [2] of the same compound?
A: > 20 µM

Q: `COC[C@H]1CCCN1c1cc(=O)n(CC(=O)Nc2ccc3nncn3c2)nc1C(C)C` [Compound 15] was tested. Which AC50 [1] did it give?
A: > 10 µM

Q: What about the AC50 [2] of the same compound?
A: 16.6 µM

Q: Which AC50 [1] does the source give for `CC(C)c1nn(CC(=O)Nc2ccc3nncn3c2)c(=O)cc1N1CC[C@@H](F)C1` [Compound 10] here?
A: > 10 µM

Q: And the AC50 [2]?
A: 0.53 µM

Q: For `CC(C)c1nn(CC(=O)Nc2ccc3nncn3c2)c(=O)cc1Nc1ccc2oncc2c1` [Compound 41, N-([1,2,4]triazolo[4,3-a]pyridin-6-yl)-2-(4-(benzo[d]isoxazol-5-ylamino)-3-isopropyl-6-oxopyridazin-1(6H)-yl)acetamide], which AC50 [1] is on record?
A: > 20 µM

Q: And the AC50 [2]?
A: > 20 µM
